Legend:
Format in all cases: physicochemical
[1] = Titration of zinc chloride with sodium tripolyphosphate, clarity of solution; details: zinc chloride titrated with sodium tripolyphosphate; solution cloudy until about 1 equivalent of STPP was added
Method: In the single component titration procedure, a scintillation vial (20 mL) is loaded with 2 mL of a 0.25M zinc nitrate solution and 6 mL of distilled water. The vial is stirred on a magnetic stir plate with an immersed pH electrode. Initial pH is measured. While stirring, the solution is slowly titrated with a 0.75M aqueous solution of arginine in small portions (e.g., 0.01-0.1 mL). In between each addition, the solution is allowed to equilibrate and the pH is recorded. At the conclusion of the experiment, the molar equivalent of added arginine is plotted against the pH. The slope is calculated and plotted as well to highlight the inflection points, which indicate where complex formation takes places.
Substantially the same single-component titration procedure is also performed in a titration of 0.75M zinc chloride with 0.25M sodium tripolyphosphate.

[2] = Dilution experiment (precipitation on dilution with water); details: solutions in distilled water, ZLP 200 mg/mL, ZLC 185 mg/mL; diluted with water at ratios from 1:2 to 1:16; ZLC result at dilutions of 1:8 to 1:16
Method: (§1) A solution of ZLP in distilled water at a concentration of 200 mg/mL (23.6 wt % zinc) is prepared. For comparison, a solution of zinc-lysine-chloride complex (ZLC) ([Zn(lysine)2Cl]Cl) is prepared at a concentration of 185 mg/mL. Both solutions are diluted with water at ratios from 1:2 to 1:16.

[3] = Foaming experiment with sodium lauryl sulfate; details: 7.25 wt % complex (0.85 wt % zinc) with 2 wt % sodium lauryl sulfate in distilled water; vial shaken ten times
Method: A solution of ZLP in distilled water at a concentration of 7.25 wt % (0.85 wt % zinc) containing also 2 wt % of sodium lauryl sulfate is compared to a solution of ZLC and sodium lauryl sulfate at the same concentrations and to a solution of sodium lauryl sulfate. Each solution is sealed in a screw-cap vial and shaken back and forth ten times. […] A similar experiment is conducted using an 1:10 aqueous slurry of the toothpaste formula of Example 1 compared to a control toothpaste having the same composition except for the absence of ZLP (in the control, the 7.25% ZLP is replaced by 0.5 wt % TSPP and 6.75 wt % sorbitol, 70%).

[4] = Polyphosphate experiment (mixing with STPP solution); details: 5 mL of aqueous complex solution mixed with 5 mL of 2 wt % STPP solution
Method: Aqueous solutions of ZLP and ZLC, respectively, are prepared as described above, and 5 mL of each of these solutions is mixed with 5 mL STPP solution at a concentration of 2 wt %. […] Thus, ZLP complex is stable in the presence of additional STPP, whereas other zinc complexes may not be.

[5] = Storage of undiluted solution at room temperature, repeat LC-MS analysis; details: undiluted 200 mg/mL solution stored at room temperature for one month
Method: About 6.0 g of lysine hydrochloride is dissolved in 250 ml distilled water with stirring at room temperature. About 12.0 g sodium tripolyphosphate pentabasic is added with stirring, followed by either 50% aqueous sodium hydroxide solution or concentrated hydrochloric acid solution to adjust the pH to either 5, 6, 7, 8, 9 or 10. To the resulting solution, about 2.68 g of zinc oxide is slowly added. The mixture is then allowed to stir at either room temperature, 50° C. or 80° C., for 2 hours. The reaction is monitored by liquid chromatography-mass spectrometry (LC-MS, using electrospray ionization-tandem mass spectrometer running positive ion mode). LC separation is achieved on Agilent Zorbax SB-Aq column (2.1 mm i.d.×50 mm, 3.5 μm particle size), running 5% water/methanol at 70 μL/minute with 1 μL injection volume.
as §1

solubility in aqueous titration solution [1] | change of LC-MS spectrum after storage [5] | Molecule | precipitation upon dilution with water [2] | foaming of solution with SLS relative to aqueous SLS solution [3] | appearance after mixing with STPP solution [4]
soluble | – | O=P([O-])([O-])OP(=O)([O-])OP(=O)([O-])[O-].[Na+].[Na+].[Na+].[Zn+2] [Na3Zn(P3O10)] | – | – | –
poorly soluble | – | O=P([O-])([O-])OP(=O)([O-])OP(=O)([O-])[O-].[Na+].[Zn+2].[Zn+2] [NaZn2(P3O10)] | – | – | –
– | – | NCCCCC(N)C(=O)O.NCCCCC(N)C(=O)O.[Cl-].[Cl-].[Zn+2] (stereo not drawn) [ZLC, [Zn(lysine)2Cl]Cl] | significant precipitation of insoluble material | significantly inhibited | produces a white precipitate
– | has not changed | [Zn(C6H14N2O2)(P3O10)Na4]^+Cl^− [ZLP] | no precipitation occurs at any dilution | comparable | remains clear and homogenous

Source: US20190175479A1, “Zinc-Amino Acid-Tripolyphosphate Complexes” (Colgate-Palmolive Company, priority 2017, published 2019)
